Legend:
brain organoids = assay: CellTiter Glo 3D cell viability assay in brain organoids; format: cell-based; settings: 1 μM
Protocol: FIG. 19 is a plot showing toxicity results for brain organoids treated with 1 μM CA.
FIG. 18 is a plot showing the anti-ZIKV activity of cladoniamide A (incubation with 1 μM CA for 72 hours; 2 biological replicates, each with 4 organoids/well) using four brain organoid systems. There was a greater than 4-log reduction in extracellular ZIKV titer when treated with CA. […] FIGS. 20 and 21 show plots showing the anti-ZIKV activity of CA and CC (incubation with 10 μM CA or CC for 69 hours, MOI 1; 4 technical replicates as there were 4 organoids/[…]).

[1] = test system: human coronavirus 229E (HCoV-229E); assay: HCoV-229E intracellular viral dsRNA assay in Huh-7 cells; format: cell-based; settings: Huh-7, 48 h
Protocol: An IF-based assay was used to monitor viral dsRNA in infected cells.
CA pre-treatment: Cladoniamide A was added to non-infected Huh-7 cells (3 h). Cells were washed with PBS and inoculated with human coronavirus 229E (HCoV-229E) for 3 hours, then HCoV-229E was removed and the cells were washed with PBS once more. 48 hours post-infection, the cells were fixed and the intra-cellular viral dsRNA was quantified (HCS CX5 system). CA added post-infection: Huh-7 cells were inoculated with HCoV-229E for 3 hours. Then HCoV-229E was removed and cells were washed with PBS. Cladoniamide A was added to these infected cells. 48 hours post-infection, the cells were fixed and the intra-cellular viral dsRNA was quantified (HCS CX5 system).

DENV-2, DENV-3, DENV-4 = assay: DENV-2, -3, -4 dsRNA imaging in Huh7.5.1 and U87 cells; format: cell-based, dengue virus; settings: Huh 7.5.1 cells and U87 cells, FIG. 9
Protocol: Cultured Huh7.5.1 cells (left plots) or U87 cells (right plots) were treated with the indicated concentrations of CA (1=Mock, 2=0 M, 3=1 M, 4=5 M, 5=10 M, 6=20 µM) or PF-429242 (7=15 M) for 1 h before being washed with PBS and infected with DENV-2, DENV-3, or DENV-4 at MOI 1.0 for 48 h. Cells were labeled for viral dsRNA with […] then imaged and quantified using the Cellomics ArrayScan™ VTI.

ZIKV [2] = assay: ZIKV infectivity by semisolid overlay plaque assay after pre-treatment of A549 and U87 MG cells; format: cell-based, Zika virus; settings: for reduction in ZIKV titer: CA 250 nM 1 h pre-treatment, MOI 1.0, 3 d
DENV-3 = DENV-3 intracellular dsRNA (Cellomics) in A549 cells; format: cell-based, dengue virus
Protocol: Error bars represent SD among 3 biological replicates. Cultured A549 cells were treated with the indicated concentrations of CA (1=Mock, 2=0 M, 3=1 μM, 4=5 M, 5=10 M, 6=20 µM) or PF-429242 (7=15 M) for 1 h before being washed with PBS and infected with DENV-2, DENV-3, or DENV-4 at MOI 1.0 for 48 h. Cells were labeled for viral dsRNA with […] then imaged and quantified using the Cellomics ArrayScan™ VTI High Content Screening system.
Viruses. ZIKV: ZIKV strain PRVABC59 (Puerto Rico/2015) (ATCC #VR-1843) was used in these studies, specifically three separate stocks generated in Vero E6 cells with titres of 1.35×10^8 pfu/mL, 1.0×10^7 pfu/mL, and 2.9×10^6 pfu/mL respectively. DENV strains: DENV-2 strain NGC, DENV-3 strain H-87, and DENV-4 strain H-241 were kindly provided by National Microbiology Laboratory, Winnipeg, MB, Canada.
A549 cells were seeded onto Corning tissue culture treated 96 well plates and incubated at 37 degrees Celsius and 5% CO2 for 24 h. CA was diluted in MEM complete media to concentrations of 1 μM, 5 μM, 10 μM, 20 μM, including a 0 μM condition. Diluted CA was added to each well and cells were incubated at 37 degrees Celsius and 5% CO2 for 1 h. After 1 h, cells were washed once with PBS to remove CA and were then infected with DENV-2, -3 or -4 at an MOI of 1. […] Labeled 96 well plates were imaged and quantified using the Cellomics ArrayScan VTI. […]

ZIKV [3] = assay: ZIKV viral dsRNA imaging (Cellomics ArrayScan VTI) in A549 cells; format: cell-based, Zika virus; settings: 15 μM, 1 h pre-treatment, MOI 1, 48 h
ZIKV [4] = assay: Plaque assay (PFU) dose response, ZIKV-infected A549 cells; format: cell-based; settings: Zika virus
Protocol: Error bars represent SD among 2 biological replicates.
Cultured A549 cells were treated with various concentrations of CA or PF-429242 for 24 h before being washed with PBS and inoculated with ZIKV (ZIKV strain VR 1843, Puerto Rico, 2015; ATCC) at MOI 1.0 for 1 h. Following the removal of the inoculum, cells were incubated in fresh media for 2 d before the supernatant was collected, clarified, and secreted NS1 protein abundance was measured by an ELISA kit (BioFront Technologies) according to the manufacturer's instructions. Curve fitting was performed in Igor Pro (WaveMetrics) using a hyperbolic fit algorithm (FIG. 4; upper and middle plots) and IC50 and TI values obtained. IC50 and TI values were also obtained for CA via plaque assay (PFU; FIG. 4, lower plot). FIG. 4 (upper plot) is an ED50 curve for the PF inhibitor based on the detection of secreted Non-Structural protein 1 (sNS1), secreted viral biomarker. sNS1 was detected using an Elisa test (commercially available). FIG. 4 (middle plot) is an ED50 curve for CA based on the detection of secreted Non-Structural protein 1 (sNS1), secreted viral biomarker. sNS1 was detected using an Elisa test (commercially available).
Bottom: ED50 curve for CA based on the detection of secreted infectious virus particles, as viral biomarker. Titer of the infectious virus particles (Plaque forming units) determined using plaque assays.

ZIKV [5] = assay: Time-of-addition study of ZIKV infection in A549 cells (plaque assay); format: cell-based, Zika virus; settings: 250 nM CA; full lifecycle, pre-replication, post-replication; A549, MOI 1.0
Protocol: Error bars represent SEM among 3 biological replicates. Significance was calculated by a 2-tailed unpaired Student's t-test. *, p<0.05.
Cultured A549 cells were inoculated with ZIKV for 1 h at MOI 1.0, and maintained for 2 d under different experimental conditions. For “Full lifecycle” 250 nM CA was added following the inoculation and maintained in the medium for 2 d; for “Pre-replication” 250 nM CA was added following the inoculation and maintained in the medium for 6 h, after which the cells were washed with PBS and the medium was changed; and for “Post-replication” 250 nM CA was added to the culture medium 12 hours post infection (hpi) and maintained until 24 hpi, after which the cells were washed with PBS and the medium was changed.

## COc1c2n(c3ccccc13)[C@]1(O)C(=O)N(C)C(=O)[C@]1(O)c1c-2[nH]c2ccc(Cl)cc12 [CA, (11S,15R)-7-chloro-11,15-dihydroxy-23-methoxy-13-methyl-3,13,16-triazahexacyclo[14.7.0.0^2,10.0^4,9.0^11,15.0^17,22]tricosa-1(23),2(10),4(9),5,7,17,19,21-octaene-12,14-dione]
Brain organoids
  toxicity to brain organoids: not toxic
[1]
  EC50: 15 nM
DENV-2, DENV-3, DENV-4
  activity against Dengue virus 2, 3 and 4: broad-spectrum anti-flaviviral activity
ZIKV [2]; A549 cells
  reduction in ZIKV titer: greater than 4 log
ZIKV [2]; U87 MG cells
  reduction in ZIKV titer: greater than 4 log
ZIKV [2]; at 50 nm (so in the source), FIG. 3
  inhibition of production of infectious ZIKV virions: dramatically inhibited
DENV-3; 1-20 μM, FIG. 8 middle plots
  activity against Dengue virus 3 in vitro: good activity
DENV-3; Dengue virus, DENV3, DENV-3, intracellular dsRNA (Cellomics)
  IC50: 1500 nM
ZIKV [3]
  activity against ZIKV (viral dsRNA): good activity
ZIKV [4]
  IC50: 110 nM
ZIKV [5]
  step of ZIKV infection inhibited: dual inhibitor of ZIKV infection targeting the entry and maturation steps
